# In patent publication US8852656B2, “Sleep improvement composition” (Taiyokagaku Co., Ltd., priority 2004, dated 2014):
# How the values were obtained:
# rat = details: administered to a rat; cited from earlier work
# mice = assay type: in vivo; details: oral administration of 5 g/kg
# From the text: In particular, theanine is known as a “umami” component of tea, is used as a food additive for providing flavor, and the Food Sanitation Law places no restrictions in addition amount.
# [1] = reported, Patent Document 1; cited from earlier work
compound,measurement,setting,value
CC/C=C\C/C=C\C/C=C\C/C=C\C/C=C\C/C=C\CCC(=O)O[C@H](COC(=O)CCCCCCC/C=C\CCCCCCCC)COP(=O)([O-])OCC[N+](C)(C)C [1-oleoyl-2-DHA-sn-3-phosphocholine],Effect on sleep,rat,"the total sleeping time within 24 hours, the REM sleeping time, and the REM sleeping time with respect to the total sleeping time are increased"
CCNC(=O)CC[C@H](N)C(=O)O [theanine],Death in acute toxicity test,mice,no cases of death
C[C@@H]1CC[C@H]2C(C)(C)[C@H]3C[C@@]12CC[C@@]3(C)O [cedrol],Effect on sleep,[1],"elongate the total sleeping time, shorten the sleep latency time, and increase the sleep efficiency"
